Reference: ChEMBL document CHEMBL5620354, “Development of isoselenazolium chlorides as selective pyruvate kinase isoform M2 inhibitors” (Eur J Med Chem, 2023)
Blank lines part the entries; values can stand above or below the compound they belong to.

What was measured:
Pyruvate kinase PKM [1] = target: T1, Pyruvate kinase PKM (Homo sapiens, UniProt P14618); experiment: Inhibition of N-terminal his8-tagged PKM2 (unknown origin)
Target sequence in this assay (P14618 whole entry): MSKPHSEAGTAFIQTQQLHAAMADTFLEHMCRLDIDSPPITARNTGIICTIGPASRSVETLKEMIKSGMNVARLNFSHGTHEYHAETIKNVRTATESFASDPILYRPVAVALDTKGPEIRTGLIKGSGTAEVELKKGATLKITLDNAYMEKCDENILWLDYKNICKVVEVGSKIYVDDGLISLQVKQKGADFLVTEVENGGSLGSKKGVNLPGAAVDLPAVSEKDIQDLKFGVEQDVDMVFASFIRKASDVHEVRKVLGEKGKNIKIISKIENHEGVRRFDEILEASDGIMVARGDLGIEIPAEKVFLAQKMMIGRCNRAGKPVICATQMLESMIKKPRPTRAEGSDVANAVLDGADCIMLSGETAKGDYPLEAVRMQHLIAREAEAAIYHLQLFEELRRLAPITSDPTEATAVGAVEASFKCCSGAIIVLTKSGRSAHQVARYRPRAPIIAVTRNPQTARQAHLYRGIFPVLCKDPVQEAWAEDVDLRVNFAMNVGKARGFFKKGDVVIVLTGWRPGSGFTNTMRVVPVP

[2] = Cytotoxicity against rat H9c2 cells assessed as inhibition of cell growth incubated for 48 hrs by MTT assay; type: toxicity, cell-based
HCC1937 = experiment: Cytotoxicity against human HCC1937 cells assessed as inhibition of cell growth incubated for 48 hrs by MTT assay; type: functional, cell-based; conditions: HCC1937, 48 h
Jurkat = experiment: Cytotoxicity against human Jurkat cells assessed as inhibition of cell growth incubated for 48 hrs by MTT assay; type: functional, cell-based
MCF7 = experiment: cells; conditions: Homo sapiens, MCF7, 48 h
Description: Cytotoxicity against human MCF7 cells assessed as inhibition of cell growth incubated for 48 hrs by MTT assay

A549 = experiment: cells; conditions: Homo sapiens, A549, 48 h
Description: Cytotoxicity against human A549 cells assessed as inhibition of cell growth incubated for 48 hrs by MTT assay

Pyruvate kinase PKM [3] = target: T1, Pyruvate kinase PKM; experiment: Inhibition of PKM1 (unknown origin); parameters: concentration or dose not given beside the values; conditions: concentration not given here
Target sequence in this assay (P14618 2-531 limits assumed): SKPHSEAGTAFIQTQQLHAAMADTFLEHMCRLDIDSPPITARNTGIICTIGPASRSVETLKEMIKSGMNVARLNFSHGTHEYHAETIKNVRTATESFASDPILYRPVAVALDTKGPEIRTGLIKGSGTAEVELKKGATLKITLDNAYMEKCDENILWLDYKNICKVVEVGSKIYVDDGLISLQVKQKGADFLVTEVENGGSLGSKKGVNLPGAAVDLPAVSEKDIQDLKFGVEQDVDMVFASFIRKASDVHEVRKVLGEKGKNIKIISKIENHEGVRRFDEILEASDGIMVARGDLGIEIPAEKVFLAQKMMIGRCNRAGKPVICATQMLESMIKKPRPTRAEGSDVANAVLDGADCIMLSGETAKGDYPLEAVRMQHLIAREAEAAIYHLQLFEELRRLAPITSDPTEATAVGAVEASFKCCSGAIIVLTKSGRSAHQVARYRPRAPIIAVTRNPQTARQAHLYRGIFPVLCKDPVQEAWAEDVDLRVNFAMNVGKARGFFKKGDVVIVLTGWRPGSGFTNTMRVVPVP

Oryctolagus cuniculus = species on record: Oryctolagus cuniculus; experiment: Inhibition of rabbit LDH at 1 uM relative to control
4T1 = experiment: Cytotoxicity against mouse 4T1 cells assessed as inhibition of cell growth incubated for 48 hrs by MTT assay; type: functional, cell-based; conditions: 4T1, 48 h
[4] = target: Pyruvate kinase PKLR (Homo sapiens) (UniProt P30613); experiment: Inhibition of PKR (unknown origin) at 1 uM relative to control
MDA-MB-231 = experiment: Cytotoxicity against human MDA-MB-231 cells assessed as inhibition of cell growth incubated for 48 hrs by MTT assay; type: functional, cell-based; conditions: MDA-MB-231, 48 h
Pyruvate kinase PKM [5] = target: T1, Pyruvate kinase PKM; experiment: Inhibition of N-terminal his8-tagged PKM2 (unknown origin) in presence of FBP by Michaelis-menten analysis
Target sequence in this assay (P14618 whole entry): as the sequence (P14618 whole entry) above

Pyruvate kinase PKM [6] = target: T1, Pyruvate kinase PKM; experiment: Inhibition of PKM2 (unknown origin) assessed as decrease in dimer population at 5 uM by analytical size-exclusion chromatography relative to control
Target sequence in this assay (P14618 2-531 limits assumed): as the sequence (P14618 2-531 limits assumed) above

Pyruvate kinase PKM [7] = target: T1, Pyruvate kinase PKM; experiment: Inhibition of PKM2 (unknown origin) assessed as decrease in monomer population at 5 uM by analytical size-exclusion chromatography relative to control
Target sequence in this assay (P14618 2-531 limits assumed): as above

Pyruvate kinase PKM [8] = target: T1, Pyruvate kinase PKM; experiment: Inhibition of PKM2 (unknown origin) assessed as increase in tetramer ratio by analytical size-exclusion chromatography; conditions: dose 5.0 µM
Target sequence in this assay (P14618 2-531 limits assumed): as above

Pyruvate kinase PKM [9] = target: T1, Pyruvate kinase PKM; experiment: Inhibition of PKM2 (unknown origin) assessed as decrease in dimer population at 5 uM in presence of FBP by analytical size-exclusion chromatography relative to control
Target sequence in this assay (P14618 2-531 limits assumed): as above

Pyruvate kinase PKM [10] = target: T1, Pyruvate kinase PKM; experiment: Inhibition of PKM2 (unknown origin) assessed as decrease in dimer population by analytical size-exclusion chromatography; conditions: dose 5.0 µM
Target sequence in this assay (P14618 2-531 limits assumed): as above

Pyruvate kinase PKM [11] = target: T1, Pyruvate kinase PKM; experiment: Binding affinity to PKM2 (unknown origin) assessed as protein destabilization by differential scanning fluorimetry; conditions: dose 2.5-10 µM

Chain of Pyruvate kinase PKLR (Homo sapiens) (P30613 whole entry, looked up): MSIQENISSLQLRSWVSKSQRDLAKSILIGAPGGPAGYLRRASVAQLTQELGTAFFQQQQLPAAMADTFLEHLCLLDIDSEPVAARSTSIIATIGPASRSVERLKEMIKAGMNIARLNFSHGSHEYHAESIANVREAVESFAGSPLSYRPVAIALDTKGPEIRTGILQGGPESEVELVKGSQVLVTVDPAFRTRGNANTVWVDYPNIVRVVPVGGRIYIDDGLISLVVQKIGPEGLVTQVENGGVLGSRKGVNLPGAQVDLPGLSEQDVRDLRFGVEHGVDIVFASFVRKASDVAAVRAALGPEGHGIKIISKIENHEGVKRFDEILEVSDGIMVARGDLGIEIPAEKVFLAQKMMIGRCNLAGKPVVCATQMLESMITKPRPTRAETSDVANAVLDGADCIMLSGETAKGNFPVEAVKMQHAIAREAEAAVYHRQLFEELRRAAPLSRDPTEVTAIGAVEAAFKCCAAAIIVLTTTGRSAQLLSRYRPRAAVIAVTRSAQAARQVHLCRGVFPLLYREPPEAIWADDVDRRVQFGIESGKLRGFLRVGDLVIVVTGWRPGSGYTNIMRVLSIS

Compound: COC(=O)c1cc[n+]2[se]c(C3(O)C4CC5CC(C4)CC3C5)c(Br)c2c1 (stereo not drawn)
IC50 (Pyruvate kinase PKM [1]): > 1000 nM
IC50 at 48 h [2]: 4760 nM
IC50 (HCC1937): 2890 nM
IC50 (Jurkat): 6180 nM
IC50 (MCF7): 6870 nM

Compound: NC(=O)c1cc[n+]2[se]c(C3(O)C4CC5CC(C4)CC3C5)c(Br)c2c1 (stereo not drawn)
IC50 (A549): 2210 nM
inhibition (Pyruvate kinase PKM [3]): 21%
inhibition (Oryctolagus cuniculus): 6%
IC50 (4T1; read-out: IC50): 560 nM
inhibition [4]: 11%
IC50 (Pyruvate kinase PKM [1]): 1010 nM
IC50 (MDA-MB-231): 650 nM
IC50 at 48 h [2]: 910 nM
IC50 (HCC1937): 740 nM
IC50 (Jurkat): 910 nM
IC50 (MCF7): 610 nM

Compound: COC(=O)c1cc2c(Br)c(C3(O)CCCCC3)[se][n+]2cc1F
IC50 (A549): 2930 nM
inhibition (Pyruvate kinase PKM [3]): 29%
inhibition (Oryctolagus cuniculus): 7%
IC50 (4T1; read-out: IC50): 2340 nM
inhibition [4]: 15%
IC50 (Pyruvate kinase PKM [1]): 897 nM
IC50 (MDA-MB-231): 1380 nM
IC50 at 48 h [2]: 1680 nM
IC50 (HCC1937): 1190 nM
IC50 (Jurkat): 1160 nM
IC50 (MCF7): 1080 nM

Compound: NC(=O)c1cc[n+]2[se]c(C3(O)CCC(F)(F)CC3)c(Br)c2c1
IC50 (A549): 3170 nM
IC50 (Pyruvate kinase PKM [5]): 542 nM
inhibition (Pyruvate kinase PKM [3]): 26%
inhibition (Oryctolagus cuniculus): 13%
IC50 (4T1; read-out: IC50): 1250 nM
inhibition [4]: 40%
IC50 (Pyruvate kinase PKM [1]): 362 nM
IC50 (MDA-MB-231): 1360 nM
IC50 at 48 h [2]: 1410 nM
IC50 (HCC1937): 600 nM
IC50 (Jurkat): 1430 nM
IC50 (MCF7): 1000 nM

Compound: COC(=O)c1cc[n+]2[se]c(C3(O)CCC(F)(F)CC3)c(Br)c2c1
IC50 (A549): 1160 nM
IC50 (Pyruvate kinase PKM [5]): 572 nM
inhibition (Pyruvate kinase PKM [3]): 11%
inhibition (Oryctolagus cuniculus): 2%
IC50 (4T1; read-out: IC50): 1480 nM
inhibition [4]: 29%
IC50 (Pyruvate kinase PKM [1]): 637 nM
IC50 (MDA-MB-231): 480 nM
IC50 at 48 h [2]: 1060 nM
IC50 (HCC1937): 240 nM
IC50 (Jurkat): 480 nM
IC50 (MCF7): 280 nM

Compound: NC(=O)c1cc[n+]2[se]c(C3(O)CCCCC3)c(Br)c2c1
inhibition (Pyruvate kinase PKM [6]): 69.1%
inhibition (Pyruvate kinase PKM [7]): 38%
inhibition (Pyruvate kinase PKM [8]): Dose-Dependent Effect
IC50 (A549): 2810 nM
inhibition (Pyruvate kinase PKM [9]): 43.2%
IC50 (Pyruvate kinase PKM [5]): 572 nM
inhibition (Pyruvate kinase PKM [3]): 15%
inhibition (Oryctolagus cuniculus): 6%
IC50 (4T1; read-out: IC50): 1410 nM
inhibition [4]: 37%
IC50 (Pyruvate kinase PKM [1]): 420 nM
IC50 (MDA-MB-231): 1150 nM
inhibition (Pyruvate kinase PKM [10]): Dose-Dependent Effect
IC50 at 48 h [2]: 1410 nM
IC50 (HCC1937): 600 nM
IC50 (Jurkat): 1000 nM
IC50 (MCF7): 2220 nM
Activity (Pyruvate kinase PKM [11]): Dose-Dependent Effect

IC50 (A549): 3720 nM
inhibition (Pyruvate kinase PKM [3]): 23%
inhibition (Oryctolagus cuniculus): 9%
inhibition [4]: 29%
IC50 (Pyruvate kinase PKM [1]): 901 nM
IC50 (MCF7): 1010 nM
Compound: CCCCCCCCCCCCCC(C)(O)c1[se][n+]2ccc(C(N)=O)cc2c1Br (stereo not drawn)
IC50 (4T1; read-out: IC50): 4320 nM
IC50 (MDA-MB-231): 2420 nM
IC50 at 48 h [2]: 1910 nM
IC50 (HCC1937): 910 nM
IC50 (Jurkat): 2000 nM

Compound: NC(=O)c1ccc2c(Br)c(C3(O)CCCCC3)[se][n+]2c1
IC50 (Pyruvate kinase PKM [1]): > 1000 nM
IC50 at 48 h [2]: 1270 nM
IC50 (HCC1937): 1500 nM
IC50 (Jurkat): 600 nM
IC50 (MCF7): 2300 nM

Compound: OC1(c2[se][n+]3ccccc3c2Br)CCCCC1
IC50 (Pyruvate kinase PKM [5]): 2730 nM
IC50 (Pyruvate kinase PKM [1]): 2920 nM

IC50 (Pyruvate kinase PKM [5]): > 20000 nM
IC50 (Pyruvate kinase PKM [1]): > 20000 nM
Compound: O=c1cc(-c2ccc(O)cc2)oc2cc(O)cc(O)c12 [APIGENIN]

Compound: [2H]C([2H])([2H])OC(=O)c1cc[n+]2[se]c(C3(O)CCCCC3)c(Br)c2c1.[Cl-]
IC50 (A549): 1200 nM
IC50 (Pyruvate kinase PKM [5]): 610 nM
IC50 (4T1; read-out: IC50): 1110 nM
IC50 (Pyruvate kinase PKM [1]): 478 nM
IC50 (MDA-MB-231): 400 nM
IC50 at 48 h [2]: 640 nM
IC50 (HCC1937): 540 nM
IC50 (Jurkat): 490 nM
IC50 (MCF7): 380 nM

Compound: O=C(O)c1ccc2c(Br)c(C3(O)CCCCC3)[se][n+]2c1
IC50 (Pyruvate kinase PKM [1]): > 1000 nM
IC50 at 48 h [2]: 3550 nM
IC50 (HCC1937): 3850 nM
IC50 (Jurkat): 3260 nM
IC50 (MCF7): > 10000 nM

Compound: COC(=O)c1cc[n+]2[se]c(C3([O-])CCC3)c(Br)c2c1
IC50 (A549): 9120 nM
IC50 (Pyruvate kinase PKM [5]): 603 nM
inhibition (Pyruvate kinase PKM [3]): 26%
inhibition (Oryctolagus cuniculus): 7%
IC50 (4T1; read-out: IC50): > 10000 nM
inhibition [4]: 20%
IC50 (Pyruvate kinase PKM [1]): 854 nM
IC50 (MDA-MB-231): 6510 nM
IC50 at 48 h [2]: 2970 nM
IC50 (HCC1937): 3030 nM
IC50 (Jurkat): 3240 nM
IC50 (MCF7): 2800 nM

Compound: COC(=O)c1ccc2c(Br)c(C3(O)CCCCC3)[se][n+]2c1
IC50 (A549): 1310 nM
IC50 (Pyruvate kinase PKM [5]): 303 nM
inhibition (Pyruvate kinase PKM [3]): 16%
inhibition (Oryctolagus cuniculus): 10%
IC50 (4T1; read-out: IC50): 700 nM
inhibition [4]: 39%
IC50 (Pyruvate kinase PKM [1]): 545 nM
IC50 (MDA-MB-231): 430 nM
IC50 at 48 h [2]: 890 nM
IC50 (HCC1937): 310 nM
IC50 (Jurkat): 250 nM
IC50 (MCF7): 870 nM

Compound: COC(=O)c1cc(C)[n+]2[se]c(C3(O)CCCCC3)c(Br)c2c1
IC50 (A549): 1120 nM
inhibition (Pyruvate kinase PKM [3]): 10%
inhibition (Oryctolagus cuniculus): 7%
IC50 (4T1; read-out: IC50): 960 nM
inhibition [4]: 28%
IC50 (Pyruvate kinase PKM [1]): 1360 nM
IC50 (MDA-MB-231): 370 nM
IC50 at 48 h [2]: 900 nM
IC50 (HCC1937): 340 nM
IC50 (Jurkat): 450 nM
IC50 (MCF7): 300 nM

Compound: COC(=O)c1cc[n+]2[se]c(C3([O-])CCCC3)c(Br)c2c1
IC50 (A549): 8700 nM
IC50 (Pyruvate kinase PKM [5]): 517 nM
inhibition (Pyruvate kinase PKM [3]): 20%
inhibition (Oryctolagus cuniculus): 6%
IC50 (4T1; read-out: IC50): 2040 nM
inhibition [4]: 42%
IC50 (Pyruvate kinase PKM [1]): 380 nM
IC50 (MDA-MB-231): 1660 nM
IC50 at 48 h [2]: 770 nM
IC50 (HCC1937): 410 nM
IC50 (Jurkat): 480 nM
IC50 (MCF7): 360 nM

IC50 (Pyruvate kinase PKM [1]): > 1000 nM
IC50 (MCF7): 3790 nM
Compound: CCCCCCCCCCCCCC(C)(O)c1[se][n+]2ccc(C(=O)OC)cc2c1Br (stereo not drawn)
IC50 at 48 h [2]: 3630 nM
IC50 (HCC1937): 2450 nM
IC50 (Jurkat): 3380 nM

Compound: COc1cccc2c1C(=O)c1c(O)c3c(c(O)c1C2=O)C[C@@](O)(C(=O)CO)C[C@@H]3O[C@H]1C[C@H](N)[C@H](O)[C@H](C)O1 [DOXORUBICIN]
IC50 (A549): 230 nM
IC50 (4T1): 65 nM
IC50 (MDA-MB-231): 410 nM
IC50 at 48 h [2]: 3900 nM
IC50 (HCC1937): 1080 nM
IC50 (Jurkat): 320 nM
IC50 (MCF7): 470 nM

Compound: O=C(O)c1cc[n+]2[se]c(C3(O)CCCCC3)c(Br)c2c1
IC50 (A549): 7030 nM
inhibition (Pyruvate kinase PKM [3]): 4%
inhibition (Oryctolagus cuniculus): 9%
IC50 (4T1; read-out: IC50): 6810 nM
inhibition [4]: 5%
IC50 (Pyruvate kinase PKM [1]): 1060 nM
IC50 (MDA-MB-231): 6120 nM
IC50 at 48 h [2]: 7820 nM
IC50 (HCC1937): 5820 nM
IC50 (Jurkat): 6610 nM
IC50 (MCF7): > 10000 nM

Compound: NC(=O)c1cccc2c(Br)c(C3(O)CCCCC3)[se][n+]12
IC50 (Pyruvate kinase PKM [1]): > 1000 nM
IC50 at 48 h [2]: 2630 nM
IC50 (HCC1937): 1330 nM
IC50 (Jurkat): 1880 nM
IC50 (MCF7): 3850 nM
